# Reference: article PMC12203577, “Molecular Basis of Pseudomonas syringae pv actinidiae Levansucrase Inhibition by a Multivalent Iminosugar” (Journal of Agricultural and Food Chemistry, 2025)
# “And” between values parts separate entries of the source, which are not always exact repeats. Equal values may be shown once.
# Legend:
# Lscγ [1] = target: T1, Lscγ (Pseudomonas syringae pv. actinidiae, UniProt A0A2V0R8Y2); test: Sucrose hydrolysis assay on recombinant Lscγ (DNS glucose quantification); assay type: biochemical, Pseudomonas syringae pv actinidiae biovar 3 (Psa3); details: for % Residual activity (sucrose hydrolysis), Lscγ: 100 μM iminosugar; for % Residual activity (sucrose hydrolysis), Lscγ / IC50: 60 mM sucrose
# T1 construct: 6His-tag (TEV-cleavable) (cleaved yes); made in house; host or cells: E. coli BL21 (DE3)
# T1 sequence (A0A2V0R8Y2 whole entry): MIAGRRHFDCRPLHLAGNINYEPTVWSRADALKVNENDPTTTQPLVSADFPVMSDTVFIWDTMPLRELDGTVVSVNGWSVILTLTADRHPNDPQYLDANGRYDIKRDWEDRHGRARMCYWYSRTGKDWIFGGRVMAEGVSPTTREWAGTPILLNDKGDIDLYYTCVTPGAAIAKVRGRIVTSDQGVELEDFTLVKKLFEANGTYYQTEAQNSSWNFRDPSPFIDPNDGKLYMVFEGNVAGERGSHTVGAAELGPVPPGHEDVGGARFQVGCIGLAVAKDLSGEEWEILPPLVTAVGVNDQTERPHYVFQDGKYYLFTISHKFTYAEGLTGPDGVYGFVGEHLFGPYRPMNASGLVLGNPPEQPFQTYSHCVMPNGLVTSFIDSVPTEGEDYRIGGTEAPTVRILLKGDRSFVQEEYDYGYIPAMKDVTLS
# Procedure: (§1) Lscβ and Lscγ were produced and purified as reported by Luti et al. 2021. Briefly, the lscβ and lscγ genes of Psa3 KL103 were cloned in the pNIC28-Bsa4 plasmid and used to transform E. coli BL21 (DE3) cells (New England Biolabs). At A 600 (absorbance at 600 nm) = 0.6, protein expression was induced by 0.4 mM IPTG for 20 h at 18 °C. Then, cells were harvested by […], and recombinant proteins were purified using IMAC Sepharose High Performance (Ge Healthcare) charged with Ni^2+. Subsequently, the proteins were subjected to TEV (Tobacco Etch Virus protease) treatment to remove the 6His-tag and further purified by gel chromatography on a HiLoad 16/600 Superdex 200 pg column driven by an Akta Pure 25 L system (GE Healthcare, Waukesha, WI, USA). Pure proteins were stored in 10 mM Tris/HCl at pH 7.0 at −80 °C until further analysis.
# (§2) The enzymatic assays to detect the inhibitory potential of the compounds on sucrose hydrolysis activity of Lscβ and Lscγ were performed according to Luti et al. 2021 in a total volume of 100 μL, using a Bis/Tris buffer (50 mM, pH 7.0). The experiments were performed at an enzyme concentration of 0.03 μg/μL with 60 mM sucrose and a final inhibitor concentration (compounds 1–4) of 100 μM, on a 10-min time frame. After the reactions were stopped, glucose concentration was measured using the DNS (3,5-dinitrosalicylic acid) method to determine spectrophotometrically the inhibitory activity of each compound. The enzymatic activity, measured as μmol/min·mL, was expressed as %residual enzymatic activity=[Ai/Ac]×100 , where A i is the absorbance of the samples with the inhibitors and A c is the absorbance of the control.
# (§3) The inhibition levels of compounds 1–4 were analyzed by measuring their IC50. To quantify the IC50 values, we set up different enzymatic reactions at various concentrations of the inhibitor, and we monitored the effects of such concentrations on the enzymatic activity. The assay system was prepared as described above using a Bis/Tris buffer at pH 7.0 and 60 mM sucrose as the substrate. The inhibitor concentrations tested for both enzymes were 0, 0.01, 0.1, 0.5, 1, 10, 25, 50, 100, 200, 400, and 800 μM. Glucose released by the two enzymes was quantified using the DNS method and a microplate spectrophotometer. IC50 was defined as the concentration of a compound causing 50% inhibition, and it was calculated by drawing a dose–response graph for each compound using GraphPad Prism version 8.0 for Windows, GraphPad Software, San Diego, California, USA (www.graphpad.com). The response was expressed on the Y-axis as a percentage of enzymatic activity, and the […].
# (§4) The inhibitory mechanism of TPIS (3) was determined by studying the dependence between the main kinetic parameters (K Mapp and V maxapp) and the inhibitor concentrations. Data obtained were fitted using the Michaelis–Menten equation and a nonlinear fitting software. Then, data were analyzed using the double reciprocal plot (Lineweaver–Burk method). Secondary plots were used to calculate the K i values by using GraphPad Prism version 8.0. In detail, the inhibitory mechanism of TPIS (3) was analyzed using 0, 25, 60, and 100 μM inhibitors for Lscβ and 0, 10, 25, and 100 μM for Lscγ. For each concentration, we set the sucrose concentration to 0, 10, 30, 50, 100, 200, 400, and 600 mM, and reactions were performed as previously described using an enzyme concentration of 0.02 μg/μL. After the reactions were stopped, glucose from enzymatic hydrolysis was quantified using the DNS method.
# Lscβ = target: T2, Lscβ (Pseudomonas syringae pv. actinidiae, UniProt A0A2V0R8Q9); test: Sucrose hydrolysis assay on recombinant Lscβ (DNS glucose quantification); assay type: biochemical, Pseudomonas syringae pv actinidiae biovar 3 (Psa3); details: for IC50 / % Residual activity (sucrose hydrolysis), Lscβ: 60 mM sucrose; for % Residual activity (sucrose hydrolysis), Lscβ: 100 μM iminosugar
# T2 construct: 6His-tag (TEV-cleavable) (cleaved yes); made in house; host or cells: E. coli BL21 (DE3)
# T2 sequence (A0A2V0R8Q9 whole entry): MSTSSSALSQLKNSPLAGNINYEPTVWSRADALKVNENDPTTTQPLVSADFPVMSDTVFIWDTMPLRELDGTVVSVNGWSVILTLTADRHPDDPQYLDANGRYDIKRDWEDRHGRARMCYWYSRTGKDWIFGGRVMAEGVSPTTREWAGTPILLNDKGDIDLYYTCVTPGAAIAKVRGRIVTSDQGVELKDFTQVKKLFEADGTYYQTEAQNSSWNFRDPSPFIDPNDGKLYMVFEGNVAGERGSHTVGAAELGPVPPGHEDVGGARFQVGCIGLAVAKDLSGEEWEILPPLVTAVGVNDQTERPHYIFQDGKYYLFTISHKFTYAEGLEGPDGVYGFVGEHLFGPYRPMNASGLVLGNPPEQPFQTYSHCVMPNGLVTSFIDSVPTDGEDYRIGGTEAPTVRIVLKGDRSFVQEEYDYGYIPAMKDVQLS
# Procedure: as §1
# as §2, with “The experiments were performed at an enzyme concentration of 0.03 μg/μL with 60 mM sucrose and a final inhibitor concentration (compounds 1–4) of 100 μM, on a 10-min time frame.” left out
# as §3, §4
# [2] = test system: CFBP8414 whole cell lysate; test: Macroscopic levan synthesis by lysate on agar sucrose plate, CFBP8414; assay type: biochemical, P. syringae pv actinidiae biovar 5; details: 100 μM, 72 h
# Procedure: (§5) To extract total protein, cell pellets were resuspended in 1 mL of ice-cold RIPA Buffer with Protease Inhibitors Cocktail, and cells were lysed by sonication using a Fisher Scientific Model 120 Sonic Dismembrator. The sonication step was carried out on ice with three pulses of 15 s at 30% amplitude, each followed by 30 s cooldown. Sonicated samples were cleared by centrifugation for 15 min at 15,000 × g at 4 °C. The pellet was discarded, while the supernatant was collected and stored at −20 °C for further analysis. The hydrolysis enzymatic reaction was carried out as previously described with 60 mM sucrose and 7 μL of cell lysate for 1.5 h. After the samples were boiled, glucose was quantified using the DNS method. For macroscopic evaluation of levan synthesis inhibition, a 10 μL drop of lysates was applied on an agar sucrose (5% w/v) plate alone or with 100 μM TPIS (3). A picture was taken after 72 h at 4 °C.
# [3] = test system: CFBP1390 whole cell lysate; test: Sucrose hydrolysis by whole cell lysate, CFBP1390; assay type: biochemical, P. syringae pv phaseolicola; details: 100 μM, 60 mM sucrose
# Procedure: (§6) The strains CFBP8414 (P. syringae pv actinidiae biovar 5) and CFBP1390 (P. syringae pv phaseolicola) were purchased from the CIRM-CFBP French Collection for Plant Associated Bacteria, while KL103 (P. syringae pv actinidiae biovar 3) was isolated in Tuscany in 2015, as reported by Campigli et al., 2023.
# (§7) Bacterial cells were grown in 50 mL of Nutrient Sucrose (5% w/v) for 48 h at 180 rpm at 27 °C. Cell suspensions were diluted to an A 600 of 1 (10^7 cfu/mL) in water, and 1 mL aliquots were centrifuged for 5 min at 15,000 × g at 4 °C. The supernatant was discarded, while the pellet was stored at −20 °C for further analysis.
# as §5, with “For macroscopic evaluation of levan synthesis inhibition, a 10 μL drop of lysates was applied on an agar sucrose (5% w/v) plate alone or with 100 μM TPIS (3). A picture was taken after 72 h at 4 °C.” left out
# KL103 whole cell lysate [4] = test: Macroscopic levan synthesis by lysate on agar sucrose plate, KL103; assay type: biochemical, P. syringae pv actinidiae biovar 3; details: 100 μM, 72 h
# Procedure: as §5
# Jack bean α-mannosidase = details: cited from earlier work
# KL103 whole cell lysate [5] = test: Sucrose hydrolysis by whole cell lysate, KL103; assay type: biochemical, P. syringae pv actinidiae biovar 3; details: 100 μM, 60 mM sucrose
# Procedure: as §6, §7
# as §5, with “For macroscopic evaluation of levan synthesis inhibition, a 10 μL drop of lysates was applied on an agar sucrose (5% w/v) plate alone or with 100 μM TPIS (3). A picture was taken after 72 h at 4 °C.” left out
# Lscγ [6] = target: T1, Lscγ; test: Levan synthesis turbidity assay with Lscγ; assay type: biochemical, Pseudomonas syringae pv actinidiae biovar 3 (Psa3)
# Procedure: (§8) Inhibition of levan synthesis was monitored using a turbidity assay on a microtiter plate as reported by Luti et al. 2021 with slight modifications. The reaction was performed at 37 °C in 200 μL of 50 mM sodium acetate buffer at pH 5.0 containing 60 mM sucrose and 10 μg of purified Lscγ protein per mL of reaction mixture. The turbidity of the samples at 400 nm was recorded every 5 min using a BioTek Synergy H1 Hybrid Multimode Reader. The percent inhibition was determined at 60 min of incubation, at the maximum absorbance, and was determined as defined in the previous section, Sucrose Hydrolysis Assay. For the IC50 determinations, we used a 0–200 μM TPIS (3) concentration and defined the activity as previously reported. For macroscopic evaluation of levan synthesis inhibition, a 10 μL drop of 1 μg/μL Lscγ was applied on an agar sucrose (5% w/v) plate alone or with 100 μM TPIS (3). A picture was taken after 24 h at 4 °C.
# [7] = test system: CFBP8414 whole cell lysate; test: Sucrose hydrolysis by whole cell lysate, CFBP8414; assay type: biochemical, P. syringae pv actinidiae biovar 5; details: 100 μM, 60 mM sucrose
# Procedure: as §6, §7
# as §5, with “For macroscopic evaluation of levan synthesis inhibition, a 10 μL drop of lysates was applied on an agar sucrose (5% w/v) plate alone or with 100 μM TPIS (3). A picture was taken after 72 h at 4 °C.” left out
# Lscγ [8] = target: T1, Lscγ; test: Macroscopic evaluation of levan synthesis by Lscγ on agar sucrose plate; assay type: biochemical, Pseudomonas syringae pv actinidiae biovar 3 (Psa3); details: 100 μM, 10 μL drop of 1 μg/μL Lscγ, 24 h
# Procedure: as §8
# [9] = test system: CFBP1390 whole cell lysate; test: Macroscopic levan synthesis by lysate on agar sucrose plate, CFBP1390; assay type: biochemical, P. syringae pv phaseolicola; details: 100 μM, 72 h
# Procedure: as §5
structure (smiles),measurement,setting,value
OC[C@@H]1[C@@H](O)[C@H](O)CN1CCO[C@@H]1O[C@H](CO)[C@@H](O)[C@H](O)[C@H]1O [Compound 2],"% Residual activity (sucrose hydrolysis), Lscγ",Lscγ [1]; pH 7.0,85 ± 8%
same,IC50,Lscγ [1]; pH 7.0,> 100 µM
same,IC50,Lscβ; pH 7.0,> 100 µM
"OC[C@H]1NC[C@@H](O)[C@@H]1O [Compound 1, 1,4-dideoxy-1,4-imino-D-arabinitol]","% Residual activity (sucrose hydrolysis), Lscγ",Lscγ [1]; pH 7.0,101 ± 12%
same,IC50,Lscγ [1]; pH 7.0,> 100 µM
same,"% Residual activity (sucrose hydrolysis), Lscβ",Lscβ; pH 7.0,103 ± 6%
same,"% Residual activity (sucrose hydrolysis), Lscβ","Lscβ; pH 7.0, listed as DAB-1 (1)",do not affect Lscβ activity at all
same,IC50,Lscβ; pH 7.0,> 100 µM
OC[C@H]1O[C@@](CO)(O[C@H]2O[C@H](CO)[C@@H](O)[C@H](O)[C@H]2O)[C@@H](O)[C@@H]1O [Sucrose],KMapp of Lscγ for sucrose,"Lscγ [1]; substrate, pH 7.0",KMapp(mM) 59 ± 12
same,KMapp of Lscβ for sucrose,"Lscβ; substrate, pH 7.0",KMapp (mM) 57 ± 11
OC[C@@H]1[C@@H](O)[C@H](O)CN1CCCCCCn1cc(COCC(COCc2cn(CCCCCCN3C[C@@H](O)[C@H](O)[C@H]3CO)nn2)(COCc2cn(CCCCCCN3C[C@@H](O)[C@H](O)[C@H]3CO)nn2)COCc2cn(CCCCCCN3C[C@@H](O)[C@H](O)[C@H]3CO)nn2)nn1 [Compound 3],"macroscopic levan synthesis, CFBP8414 lysate",[2],able to limit levan synthesis
same,"residual sucrose hydrolysis activity, CFBP1390 lysate",[3],55 ± 3%
same,"macroscopic levan synthesis, KL103 lysate",KL103 whole cell lysate [4],able to limit levan synthesis
same,IC50,Jack bean α-mannosidase; already demonstrated in earlier work,34 µM
same,"rp/n, Jack bean α-mannosidase","Jack bean α-mannosidase; relative potency with respect to monovalent counterpart per active unit, earlier work",10
same,"residual sucrose hydrolysis activity, KL103 lysate",KL103 whole cell lysate [5],54 ± 7%
same,"residual polymerization activity (levan production), Lscγ","Lscγ [6]; 100 μM, pH 5.0, 60 min",46 ± 3%
same,IC50,"Lscγ [6]; pH 5.0, 60 min of incubation, estimated, read-out: IC50, polymerization activity of Lscγ",37 µM
same,"% Residual activity (sucrose hydrolysis), Lscγ",Lscγ [1]; pH 7.0,36 ± 5%
same,IC50,Lscγ [1]; pH 7.0,60.9 µM
same,"inhibition mechanism, Lscγ","Lscγ [1]; KMapp increases, Vmaxapp not affected, versus sucrose",competitive inhibitor
same,Ki,"Lscγ [1]; secondary plot, pH 7.0, read-out: K i, sucrose hydrolysis, Lscγ",20 µM
same,"residual sucrose hydrolysis activity, CFBP8414 lysate",[7],44 ± 11%
same,"% Residual activity (sucrose hydrolysis), Lscβ",Lscβ; pH 7.0,49 ± 5%
same,IC50,Lscβ; pH 7.0,22 µM and 22.4 µM
same,"inhibition mechanism, Lscβ","Lscβ; KMapp increases, Vmaxapp does not vary, versus sucrose",competitive inhibitor
same,Ki,"Lscβ; secondary plot, pH 7.0, read-out: K i, sucrose hydrolysis, Lscβ",29 µM
same,"rp/n (rp divided by valency), Lscβ",Lscβ; sucrose hydrolysis,> 11
same,macroscopic levan production by Lscγ on agar sucrose plate,Lscγ [8],limits levan production
same,"macroscopic levan synthesis, CFBP1390 lysate",[9],able to limit levan synthesis
OCCc1cn(CCCCCCN2C[C@@H](O)[C@H](O)[C@H]2CO)nn1 [Compound 4],"% Residual activity (sucrose hydrolysis), Lscγ",Lscγ [1]; pH 7.0,126 ± 50%
same,"% Residual activity (sucrose hydrolysis), Lscγ","Lscγ [1]; pH 7.0, listed as PIS (4)",does not inhibit
same,IC50,Lscγ [1]; pH 7.0,> 1000 µM
same,"% Residual activity (sucrose hydrolysis), Lscβ",Lscβ; pH 7.0,93 ± 12%
same,IC50,Lscβ; pH 7.0,> 1000 µM
same,inhibition at 100 µM,"Lscβ; pH 7, read-out: inhibitory activity on sucrose hydrolysis, Lscβ",~7%
same,remaining activity at 1000 µM,"Lscβ; read-out: residual activity at 1 mM, Lscβ",40%
